# Assay results: US8680367B2, “Method to prime plants in order to increase their pathogen resistance” (priority 2004, dated 2014)
# System: callose deposition
# Test: Callose deposition in Arabidopsis after Peronospora parasitica infection
# Type: in vivo
# Conditions: positive control plants treated with BABA
# Procedure: This is represented by the disease index on the Y axis. […] Resistance assays were performed as described previously (Plant Cell 1996, 8, 1225-1237; Plant cell 1998, 10, 1571-1580). B. KO of RKS4 (rks4-1; increased expression of N-terminus, see FIG. 4) also increases resistance to Peronospora parasitica, although less than the positive control induced with β-aminobutyric acid (BABA). Plants were scored using an arbitrary scale I-IV, in which I means normal to very slight symptoms and IV means severe symptoms to death. C. […] Both tests were performed as described in (Plant Cell., 2005, 17, 987-999).
# Callose deposition was observed on Arabidopsis leaves after infection with Hyaloperonospora parasitica essentially as described by Ton et al. (Plant Cell (2005) 17(3):987-999).
structure (smiles),measurement,value
"CC(N)CC(=O)O (stereo not drawn) [BABA, β-aminobutyric acid]",Callose deposition upon treatment,increased
